Activity calls are given as the source filed them. How the calls were made is not given here.
Tested on: rodent carcinogenicity bioassays, tumor incidence
Experiment: CCRIS carcinogenicity studies
Method in brief: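 Archive of carcinogenicity, mutagenicity, tumor promotion and tumor inhibition results drawn from journals, NCI reports and other sources, expert-reviewed; covers 1985-2011 and is no longer updated.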

Q: How did the carcinogen call (Species: DOG, Strain/Sex: BEAGLE/FEMALE, Route: ORAL, Dose: 0, 30, 100, 400 MG/KG/D IN DIET FOR 52 WK (STUDY DURATION: 52 WK), Dose: 0, 30, 100, 400 MG/KG/D IN DIET FOR 52 WK (STUDY DURATION: 52 WK)) turn out when `CCN(CC)C(=O)c1cccc(C)c1` was run?
A: inactive; negative

Q: What about the carcinogen call (Species: DOG, Strain/Sex: BEAGLE/MALE, Route: ORAL, Dose: 0, 30, 100, 400 MG/KG/D IN DIET FOR 52 WK (STUDY DURATION: 52 WK), Dose: 0, 30, 100, 400 MG/KG/D IN DIET FOR 52 WK (STUDY DURATION: 52 WK)) of the same compound?
A: inactive; negative

Q: What about the carcinogen call (Species: MOUSE, Strain/Sex: CD-1/MALE, Route: ORAL, Dose: 0, 250, 500, 1000 MG/KG/D IN DIET FOR 78 WK (STUDY DURATION: 78 WK), Dose: 0, 250, 500, 1000 MG/KG/D IN DIET FOR 78 WK (STUDY DURATION: 78 WK)) of the same compound?
A: inactive; negative

Q: What about the carcinogen call (Species: Mouse, Strain/Sex: CD-1/Female (60/Group), Route: Oral, Dose: 0, 250, 500, 1000 mg/kg in diet for 78 wk, Dose: 0, 250, 500, 1000 mg/kg in diet for 78 wk) of the same compound?
A: inactive; negative

Q: What about the carcinogen call (Species: Mouse, Strain/Sex: CD-1/Male (60/Group), Route: Oral, Dose: 0, 250, 500, 1000 mg/kg in diet for 78 wk, Dose: 0, 250, 500, 1000 mg/kg in diet for 78 wk) of the same compound?
A: inactive; negative

Q: What about the carcinogen call (Species: RAT, Strain/Sex: CD-1/FEMALE, Route: ORAL, Dose: 0, 250, 500, 1000 MG/KG/D IN DIET FOR 78 WK (STUDY DURATION: 78 WK), Dose: 0, 250, 500, 1000 MG/KG/D IN DIET FOR 78 WK (STUDY DURATION: 78 WK)) of the same compound?
A: inactive; negative

Q: And the carcinogen call (Species: RAT, Strain/Sex: CD/FEMALE, Route: ORAL, Dose: 0, 30, 100, 400 MG/KG/D IN DIET FOR 104 WK (STUDY DURATION: 104 WK), Dose: 0, 30, 100, 400 MG/KG/D IN DIET FOR 104 WK (STUDY DURATION: 104 WK))?
A: inactive; negative

Q: What about the carcinogen call (Species: RAT, Strain/Sex: CD/MALE, Route: ORAL, Dose: 0, 10, 30, 100 MG/KG/D IN DIET FOR 104 WK (STUDY DURATION: 104 WK), Dose: 0, 10, 30, 100 MG/KG/D IN DIET FOR 104 WK (STUDY DURATION: 104 WK)) of the same compound?
A: inactive; negative

Q: And the carcinogen call (Species: Rat, Strain/Sex: Charles River CD/Female (60/Group), Route: Oral, Dose: 0, 10, 30, 100 mg/kg in diet for 2 yr, Dose: 0, 10, 30, 100 mg/kg in diet for 2 yr)?
A: inactive; negative

Q: What about the carcinogen call (Species: Rat, Strain/Sex: Charles River CD/Male (60/Group), Route: Oral, Dose: 0, 10, 30, 100 mg/kg in diet for 2 yr, Dose: 0, 10, 30, 100 mg/kg in diet for 2 yr) of the same compound?
A: inactive; negative

Q: For `NC(=O)N(CCCO)N=O`, which carcinogen call (Species: RAT, Strain/Sex: F344/FEMALE, Route: GAVAGE, Dose: 0, 8 MG/ML (TOTAL DOSE 0; 0.9 MMOL) IN 2 ML ETHYL ACETATE AND CORN OIL (1:2) 2/WK FOR 40 WK (STUDY DURATION: LIFETIME), Dose: 0, 8 MG/ML (TOTAL DOSE 0; 0.9 MMOL) IN 2 ML ETHYL ACETATE AND CORN OIL (1:2) 2/WK FOR 40 WK (STUDY DURATION: LIFETIME), Tumor Site: Type of Lesion: THYROID: C-CELL TUMOR) is on record?
A: active; positive

Q: What about the carcinogen call (Species: RAT, Strain/Sex: F344/FEMALE, Route: GAVAGE, Dose: 0, 8 MG/ML IN 0.2 ML ETHYL ACETATE AND CORN OIL 2/WK FOR 40 WK (STUDY DURATION: LIFESPAN), Tumor Site: Type of Lesion: THYROID: C-CELL TUMOR, UTERUS: TUMOR) of the same compound?
A: active; positive

Q: What about the carcinogen call (Species: RAT, Strain/Sex: F344/FEMALE, Route: GAVAGE, Dose: 0, 16 MG/ML (TOTAL DOSE 0; 1.3 MMOL) IN 2 ML ETHYL ACETATE AND CORN OIL (1:2) 2/WK FOR 30 WK (STUDY DURATION: LIFETIME), Dose: 0, 16 MG/ML (TOTAL DOSE 0; 1.3 MMOL) IN 2 ML ETHYL ACETATE AND CORN OIL (1:2) 2/WK FOR 30 WK (STUDY DURATION: LIFETIME)) of the same compound?
A: inactive; negative

Q: And the carcinogen call (Species: RAT, Strain/Sex: F344/FEMALE, Route: GAVAGE, Dose: 0, 16 MG/ML IN 0.2 ML ETHYL ACETATE AND CORN OIL 2/WK FOR 30 WK (STUDY DURATION: LIFESPAN), Tumor Site: Type of Lesion: LIVER: TUMOR, FORESTOMACH: TUMOR, THYROID: C-CELL TUMOR, UTERUS: TUMOR, DUODENUM: TUMOR, Tumor Site: Type of Lesion: LIVER: TUMOR, FORESTOMACH: TUMOR, THYROID: C-CELL TUMOR, UTERUS: TUMOR, DUODENUM: TUMOR)?
A: active; positive

Q: What about the carcinogen call (Species: RAT, Strain/Sex: F344/MALE, Route: GAVAGE, Dose: 0, 8 MG/ML (TOTAL DOSE 0; 0.9 MMOL) IN 2 ML ETHYL ACETATE AND CORN OIL (1:2) 2/WK FOR 40 WK (STUDY DURATION: LIFETIME), Dose: 0, 8 MG/ML (TOTAL DOSE 0; 0.9 MMOL) IN 2 ML ETHYL ACETATE AND CORN OIL (1:2) 2/WK FOR 40 WK (STUDY DURATION: LIFETIME)) of the same compound?
A: inactive; negative

Q: What about the carcinogen call (Species: RAT, Strain/Sex: F344/MALE, Route: GAVAGE, Dose: 0, 8 MG/ML IN 0.2 ML ETHYL ACETATE AND CORN OIL 2/WK FOR 40 WK (STUDY DURATION: LIFESPAN), Tumor Site: Type of Lesion: FORESTOMACH: TUMOR) of the same compound?
A: active; positive

Q: And the carcinogen call (Species: RAT, Strain/Sex: F344/MALE, Route: GAVAGE, Dose: 0, 16 MG/ML (TOTAL DOSE 0; 1.3 MMOL) IN 2 ML ETHYL ACETATE AND CORN OIL (1:2) 2/WK FOR 30 WK (STUDY DURATION: LIFETIME), Dose: 0, 16 MG/ML (TOTAL DOSE 0; 1.3 MMOL) IN 2 ML ETHYL ACETATE AND CORN OIL (1:2) 2/WK FOR 30 WK (STUDY DURATION: LIFETIME))?
A: inactive; negative

Q: What about the carcinogen call (Species: RAT, Strain/Sex: F344/MALE, Route: GAVAGE, Dose: 0, 16 MG/ML IN 0.2 ML ETHYL ACETATE AND CORN OIL 2/WK FOR 30 WK (STUDY DURATION: LIFESPAN), Tumor Site: Type of Lesion: LUNG: TUMOR, GLANDULAR STOMACH: TUMOR, SKIN: TUMOR, Tumor Site: Type of Lesion: LUNG: TUMOR, GLANDULAR STOMACH: TUMOR, SKIN: TUMOR) of the same compound?
A: active; positive

Q: What does the source list for `O[C@@H]1[C@@H]2O[C@@H]2c2c(ccc3c2ccc2ccccc23)[C@H]1O`?
A: carcinogen call (Species: MOUSE, Strain/Sex: ICR/FEMALE, Route: INTRAPERITONEAL, Dose: 0, 8 NMOL IN 5 µL DMSO ON D 1, 16 NMOL IN 10 µL ON D 8 AND 32 NMOL IN 20 µL ON D 15 OF LIFE (STUDY DURATION: 35 WK)): inactive; negative; carcinogen call (Species: MOUSE, Strain/Sex: ICR/FEMALE, Route: INTRAPERITONEAL, Dose: 0, 500 NMOL (TOTAL DOSE) ADMINISTERED IN DOSES OF 1/7, 2/7, AND 4/7 ON DAYS 1, 7, AND 15 OF LIFE, RESPECTIVELY (STUDY DU, Tumor Site: Type of Lesion: LUNG: TUMOR): active; positive; carcinogen call (Species: MOUSE, Strain/Sex: ICR/MALE, Route: INTRAPERITONEAL, Dose: 0, 8 NMOL IN 5 µL DMSO ON D 1, 16 NMOL IN 10 µL ON D 8 AND 32 NMOL IN 20 µL ON D 15 OF LIFE (STUDY DURATION: 35 WK)): inactive; negative; carcinogen call (Species: MOUSE, Strain/Sex: ICR/MALE, Route: INTRAPERITONEAL, Dose: 0, 500 NMOL (TOTAL DOSE) ADMINISTERED IN DOSES OF 1/7, 2/7, AND 4/7 ON DAYS 1, 7 AND 15 OF LIFE , RESPECTIVELY (STUDY DU, Tumor Site: Type of Lesion: LUNG: TUMOR): active; positive

Q: For `CN(N=O)c1ccccc1`, which carcinogen call (Species: HAMSTER, Strain/Sex: SYRIAN/FEMALE, Route: GAVAGE, Dose: 0, 5 MG/KG 1/WK FOR 50 WK (TOTAL DOSE: 0; 1.8 MMOL) (STUDY DURATION: LIFETIME), Dose: 0, 5 MG/KG 1/WK FOR 50 WK (TOTAL DOSE: 0; 1.8 MMOL) (STUDY DURATION: LIFETIME), Tumor Site: Type of Lesion: LIVER: CHOLANGIOMA) is on record?
A: active; positive

Q: And the carcinogen call (Species: MOUSE, Strain/Sex: SWISS/MALE,FEMALE, Route: ORAL, Dose: 0.070 G/L IN DRINKING WATER FOR 28 WK, Tumor Site: Type of Lesion: LUNG: ADENOMA)?
A: active; positive

Q: What about the carcinogen call (Species: RAT, Strain/Sex: ALBINO/MALE,FEMALE, Route: ORAL, Dose: 2.0 MG IN 10 ML DRINKING WATER (AVE) 5/WK FOR 52 WK, Tumor Site: Type of Lesion: ESOPHAGUS: PAPILLOMA, SQUAMOUS CELL CARCINOMA, FORESTOMACH: PAPILLOMA, SQUAMOUS CELL CARCINOMA, MOUTH: PAPILLOMA, SQUAMO, Tumor Site: Type of Lesion: ESOPHAGUS: PAPILLOMA, SQUAMOUS CELL CARCINOMA, FORESTOMACH: PAPILLOMA, SQUAMOUS CELL CARCINOMA, MOUTH: PAPILLOMA, SQUAMO) of the same compound?
A: active; positive

Q: And the carcinogen call (Species: RAT, Strain/Sex: STRAIN-BD, Route: ORAL, Dose: 14 MG/KG/D IN DIET FOR 250 D (AVE TOTAL DOSE: 3.4 G/KG), Tumor Site: Type of Lesion: ESOPHAGUS: SQUAMOUS CELL CARCINOMA)?
A: active; positive

Q: And the carcinogen call (Species: RAT, Strain/Sex: STRAIN-CB/MALE,FEMALE, Route: ORAL, Dose: 5 MG AS 0.2% FOR 7 MO THEN 2.5 MG AS 0.1% IN DRINKING WATER 1/D, 6/WK, Tumor Site: Type of Lesion: ESOPHAGUS: BENIGN TUMOR OR MALIGNANT TUMOR)?
A: active; positive

— PubChem BioAssay AID1259411 (Chemical Carcinogenesis Research Information System (CCRIS), 2018)
